The results in this text go back to publication PMC11243693, “Synthesis and Biological Evaluation of New Compounds with Nitroimidazole Moiety” (Molecules, 2024).

The test system of data set [1] is Staphylococcus epidermidis ATCC 12228. Briefly: Broth microdilution, S. epidermidis ATCC 12228. The data set is classed as cell-based. The note with it: Se 12228; for MBC/MIC Ratio: <4 bactericidal, ≥4 bacteriostatic. The protocol:
(§1) The antibacterial activity of the obtained thiosemicarbazides and hydrazide–hydrazones was determined by evaluating their ability to inhibit microbial growth in vitro using the broth microdilution method, according to the guidelines of the European Committee on Antimicrobial Susceptibility Testing (EUCAST). The method involved the preparation of microbial suspensions with a standardized density of 0.5 on the McFarland scale (equivalent to 1.5 × 10^8 colony-forming units/mL for bacteria and […] for fungi). A solution of the test substances was then prepared (initial concentration 1000 µg/mL, diluted in sterile Mueller-Hinton broth for bacteria or Mueller-Hinton with 2% glucose for fungi). The test was carried out in 96-well polystyrene flat-bottom plates (Medlab, Poland) with 100 µL of appropriate sterile microbiological medium in each well. The first wells were filled with 200 µL of the test substance, diluted to the initial concentration, and then double-decreasing dilutions were made under aseptic conditions using an automatic pipette. The final step was the addition of a 10-fold diluted microbial suspension of 2 µL. At the same time, the following controls were included: (a) medium control (100 µL of sterile medium without microorganisms added), (b) microbial viability control, (c) test substance control (dilutions without added micro-organisms), (d) positive control of the drug used in the clinic. The plates thus prepared were incubated for 18 ± 2 h at 35 ± 2 °C under conditions optimal for the growth of the test microorganisms. After incubation, the spectrophotometric absorbance at 570 nm in each well of the plate was read. The aim of this part of the study was to determine two parameters: the minimum inhibitory concentration (MIC) and the minimum bactericidal or fungicidal concentration (MBC/MFC) of the test compound. […] The MBC value was determined by adding 5 µL of the contents of each well of the plate to solid sterile MHA or MHA + 2%glc medium for bacteria and fungi, respectively. The area on the plate where 99.9% inhibition of microbial growth was observed indicated the lethal concentration. In addition, the quotient MBC(MFC)/MIC could be determined to assess the nature of the activity of the test substance. If MBC(MFC)/MIC was <4, the test substance was bactericidal/fungicidal, whereas if MBC(MFC)/MIC was ≥4, it was bacteriostatic/fungistatic. Amoxicillin (Glentham Life Sciences, USA) and nystatin (Glentham Life Sciences, USA) were used as the controls for this assay.
(§2) The test was performed either on bacteria, comprising: Gram-positive (Staphylococcus aureus ATCC 25923, Staphylococcus aureus ATCC 6538, Staphylococcus aureus ATCC 43300 methicillin-resistant MRSA, Staphylococcus epidermidis ATCC 12228, Micrococcus luteus ATCC 10240, Bacillus subtilis ATCC 6633, Bacillus cereus ATCC 10876) and Gram-negative (Escherichia coli ATCC 25922, Pseudomonas aeruginosa ATCC 27853, Proteus mirabilis ATCC 12453, Klebsiella pneumoniae ATCC 13883) or yeast (Candida parapsilosis ATCC 22019, Candida glabrata ATCC 90030, Candida krusei ATCC 14243, Candida glabrata ATCC 15126, Candida tropicalis ATCC 1369, Candida auris CDC B11903, Candida lusitaniae ATCC 3449) reference strains from the American Type Culture Collection (ATCC) or the Centers for Disease Control and Prevention (CDC).
(Broth dilution looks for growth in wells or tubes with falling amounts of substance.)

Another data set relates to Candida auris CDC B11903. Briefly: Broth microdilution, C. auris CDC B11903. The data set is classed as cell-based. The note with it: Ca B11903. As to the method:
as §1, §2

The test system of data set [2] is Micrococcus luteus ATCC 10240. Briefly: Broth microdilution, M. luteus ATCC 10240. The data set is classed as cell-based. The note with it: Ml 10240. The protocol: as §1, §2
Data set [3] deals with Candida lusitaniae ATCC 3449. Briefly: Broth microdilution, C. lusitaniae ATCC 3449. The note with it: Cl 3449. The data set is classed as cell-based. As to the method:
as §1, §2

The test system of data set [4] is Candida parapsilosis ATCC 22019. Briefly: Broth microdilution, C. parapsilosis ATCC 22019. The note with it: Cp 22019. The data set is classed as cell-based. The protocol:
as §1, §2

Data set [5] deals with Bacillus subtilis ATCC 6633. Briefly: Broth microdilution, B. subtilis ATCC 6633. Type of data set: cell-based. The note with it: Bs 6633; for MBC/MIC Ratio: <4 bactericidal, ≥4 bacteriostatic. As to the method: as §1, §2
Data set [6] concerns Candida glabrata ATCC 90030. Briefly: Broth microdilution, C. glabrata ATCC 90030. Type of data set: cell-based. The note with it: Cg 90030. As to the method:
as §1, §2

In data set [7] the test system is Staphylococcus aureus ATCC 6538. Briefly: Broth microdilution, S. aureus ATCC 6538. The data set is classed as cell-based. The note with it: Sa 6538. The protocol: as §1, §2
The subject of data set [8] is Staphylococcus aureus ATCC 25923. Briefly: Broth microdilution, S. aureus ATCC 25923. The data set is classed as cell-based. The note with it: Sa 25923. The protocol: as §1, §2
Data set [9] deals with Bacillus cereus ATCC 10876. Briefly: Broth microdilution, B. cereus ATCC 10876. Type of data set: cell-based. The note with it: Bc 10876. The protocol: as §1, §2
In another data set the test system is Candida spp. Briefly: Broth microdilution, Candida spp. The note with it: range over both strains and the listed compounds. The data set is classed as cell-based. The protocol: as §1, §2
In data set [10] the test system is Candida krusei ATCC 14243. Briefly: Broth microdilution, C. krusei ATCC 14243. The data set is classed as cell-based. The note with it: Ck 14243. As to the method:
as §1, §2

The subject of data set [11] is Staphylococcus aureus ATCC 43300 methicillin-resistant MRSA. Briefly: Broth microdilution, S. aureus ATCC 43300 MRSA. Type of data set: cell-based. The note with it: Sa 43300 MRSA. As to the method: as §1, §2
For data set [12], the system named is Candida tropicalis ATCC 1369. Briefly: Broth microdilution, C. tropicalis ATCC 1369. The note with it: Ct 1369. The data set is classed as cell-based. The protocol: as §1, §2
In data set [13] the test system is Candida glabrata ATCC 15126. Briefly: Broth microdilution, C. glabrata ATCC 15126. The data set is classed as cell-based. The note with it: Cg 15126. The protocol:
as §1, §2

In brackets after ≈: the same amount, converted by molar mass. Like-named read-outs stand apart in the source and are kept apart here.

For `Cn1cc([N+](=O)[O-])nc1C(=O)NNC(=S)Nc1cccc(Cl)c1` [Compound 4], the MBC in [1] is reported as 125 µg/mL (≈ 352 µM); in data set [2] it was 500 µg/mL (≈ 1410 µM); in data set [5] it was 62.5 µg/mL (≈ 176 µM); in data set [7], more than 1000 µg/mL; in data set [8], more than 1000 µg/mL; in data set [9] it was more than 1000 µg/mL. The molecule further registered an MBC in data set [11] of more than 1000 µg/mL. The MIC in [1] is given as 125 µg/mL (≈ 352 µM); against Candida auris CDC B11903 it was more than 1000 µg/mL; in data set [2], 125 µg/mL (≈ 352 µM); in data set [3], more than 1000 µg/mL; in data set [4] it was 62.5 µg/mL (≈ 176 µM); in data set [5], 62.5 µg/mL (≈ 176 µM). Besides, the MIC is recorded as more than 1000 µg/mL in [6]; 250 µg/mL (≈ 705 µM) in [7]; 62.5 µg/mL (≈ 176 µM) in data set [8]; 250 µg/mL (≈ 705 µM) in data set [9]; more than 1000 µg/mL in data set [10]; 500 µg/mL (≈ 1410 µM) in data set [11]. In addition, the minimal inhibitory concentration (MIC) in [12] is 250 µg/mL (≈ 705 µM); in data set [13], more than 1000 µg/mL. Besides, the “MBC/MIC Ratio” value in data set [1] is on record as 1; in data set [2] (<4 bactericidal, ≥4 bacteriostatic), 4; in data set [5], 1. For the same molecule, the minimum fungicidal concentration (MFC) is more than 1000 µg/mL in [4] and 500 µg/mL (≈ 1410 µM) in [12]. In the data set on Candida spp., the “MBC (range, C. parapsilosis ATCC 22019 and C. tropicalis ATCC 1369)” value is 500 to 1000 µg/mL. Besides, the “MIC (range, C. parapsilosis ATCC 22019 and C. tropicalis ATCC 1369)” value with Candida spp. lay within 62.5 to 1000 µg/mL. In [12] (<4 fungicidal, ≥4 fungistatic), the “MFC/MIC Ratio” value stood at 2.
The molecule `COc1cccc(C=NNC(=O)c2nc([N+](=O)[O-])cn2C)c1` [Compound 24, N’-[(3-methoxyphenyl)methylidene]-1-methyl-4-nitro-1H-imidazole-2-carbohydrazide] showed a melting point of 208 to 210 °C.
With `Cn1cc([N+](=O)[O-])nc1C(=O)NN=Cc1ccccc1F` [Compound 22, N’-[(2-fluorophenyl)methylidene]-1-methyl-4-nitro-1H-imidazole-2-carbohydrazide], the melting point was in the range of 214 to 217 °C.
Turning to `Cn1cc([N+](=O)[O-])nc1C(=O)NN=Cc1ccc(C(F)(F)F)cc1` [Compound 26, 1-methyl-4-nitro-N’-[(4-trifluoromethylphenyl)methylidene]-1H-imidazole-2-carbohydrazide], the melting point was in the range of 208 to 210 °C.
Consider `Cn1cc([N+](=O)[O-])nc1C(=O)NN=Cc1ccccc1` [Compound 19, 1-methyl-4-nitro-N’-(phenylmethylidene)-1H-imidazole-2-carbohydrazide], for which the melting point fell in the range of 280 to 284 °C.
`Cn1cc([N+](=O)[O-])nc1C(=O)NN=Cc1ccccc1Cl` [Compound 20, N’-[(2-chlorophenyl)methylidene]-1-methyl-4-nitro-1H-imidazole-2-carbohydrazide] showed a melting point of 234 to 236 °C.
As for `Cn1cc([N+](=O)[O-])nc1C(=O)NN=Cc1cccc(Cl)c1` [Compound 21, N’-[(3-chlorophenyl)methylidene]-1-methyl-4-nitro-1H-imidazole-2-carbohydrazide], the melting point was 276 to 278 °C.
Molecule `Cn1cc([N+](=O)[O-])nc1C(=O)NN=Cc1cccc(Cl)c1F` [Compound 28, N’-[(3-chloro-2-fluorophenyl)methylidene]-1-methyl-4-nitro-1H-imidazole-2-carbohydrazide] came in with a melting point of 252 to 255 °C.
Still for that read-out and setting: the same measure for `COc1ccccc1C=NNC(=O)c1nc([N+](=O)[O-])cn1C` [Compound 23, N’-[(2-methoxyphenyl)methylidene]-1-methyl-4-nitro-1H-imidazole-2-carbohydrazide]: 205 to 208 °C; for `Cn1cc([N+](=O)[O-])nc1C(=O)NN=Cc1cccc(O)c1` [Compound 27, N’-[(3-hydroxyphenyl)methylidene]-1-methyl-4-nitro-1H-imidazole-2-carbohydrazide]: 208 to 210 °C.
On the same count and under the same terms, for `COc1cc(Cl)ccc1C=NNC(=O)c1nc([N+](=O)[O-])cn1C` [Compound 29, N’-[(4-chloro-2-methoxyphenyl)methylidene]-1-methyl-4-nitro-1H-imidazole-2-carbohydrazide] the value was 234 to 237 °C.
For `Cc1cccc(NC(=S)NNC(=O)c2nc([N+](=O)[O-])cn2C)c1` [Compound 16, 1-[(1-methyl-4-nitroimidazol-2-yl)carbonyl]-4-(3-methylphenyl)-thiosemicarbazide], the “MBC/MIC Ratio” value in [1] and in [5] was 1 each time. Further, the MBC in data set [1] (Staphylococcus epidermidis, ATCC12228, read-out: MBC) is 500 µg/mL (≈ 1500 µM); in [2] (Micrococcus luteus, ATCC10240, read-out: MBC) it was more than 1000 µg/mL; in [5] (Bacillus subtilis, ATCC6633, read-out: MBC) it was 500 µg/mL (≈ 1500 µM); in data set [7] (Staphylococcus aureus, ATCC6538, read-out: MBC) it was more than 1000 µg/mL; in data set [8] (Staphylococcus aureus, ATCC25923, read-out: MBC), more than 1000 µg/mL; in data set [9] (Bacillus cereus, ATCC10876, read-out: MBC), more than 1000 µg/mL. The MBC in data set [11] (Staphylococcus aureus, read-out: MBC) was more than 1000 µg/mL. Also, the MIC in data set [1] (Staphylococcus epidermidis, ATCC12228, read-out: MIC) is 500 µg/mL (≈ 1500 µM); with Candida auris CDC B11903 (Candidozyma auris, CDCB11903, read-out: MIC), more than 1000 µg/mL; in [2] (Micrococcus luteus, ATCC10240, read-out: MIC), 500 µg/mL (≈ 1500 µM); in [3] (Clavispora lusitaniae, ATCC3449, read-out: MIC), more than 1000 µg/mL; in data set [4] (Lodderomyces parapsilosis, ATCC22019, read-out: MIC), 500 µg/mL (≈ 1500 µM); in data set [5] (Bacillus subtilis, ATCC6633, read-out: MIC) it was 500 µg/mL (≈ 1500 µM). In addition, the MIC in [6] (Nakaseomyces glabratus, ATCC90030, read-out: MIC) is more than 1000 µg/mL; in data set [7] (Staphylococcus aureus, ATCC6538, read-out: MIC), 62.5 µg/mL (≈ 187 µM); in data set [8] (Staphylococcus aureus, ATCC25923, read-out: MIC) it was 250 µg/mL (≈ 748 µM); in data set [9] (Bacillus cereus, ATCC10876, read-out: MIC) it was 250 µg/mL (≈ 748 µM); in [10] (Pichia kudriavzevii, ATCC14243, read-out: MIC) it was more than 1000 µg/mL; in data set [11] (Staphylococcus aureus, read-out: MIC), 125 µg/mL (≈ 374 µM). In addition, the MIC in data set [12] (Candida tropicalis, ATCC1369, read-out: MIC) was more than 1000 µg/mL; in data set [13] (Nakaseomyces glabratus, ATCC15126, read-out: MIC), more than 1000 µg/mL. Also, the MFC in [4] (Lodderomyces parapsilosis, ATCC22019, read-out: MFC) is more than 1000 µg/mL.
`COc1ccc(C=NNC(=O)c2nc([N+](=O)[O-])cn2C)cc1` [Compound 25, N’-[(4-methoxyphenyl)methylidene]-1-methyl-4-nitro-1H-imidazole-2-carbohydrazide] gave a melting point of 224 to 226 °C.

Usually MBC stands for the smallest concentration meeting the test's criterion for killing. What is called MIC is the least concentration at which growth counts as inhibited. One may read the MFC as the smallest concentration meeting the test's criterion for killing the fungus. One may read the melting point as the temperature of the solid-liquid transition.
